Results as given in publication PMC11721817 (Toxicology Reports, 2024).

Columns and labels:
[1] = tested on: CT-26 (murine colorectal cancer cells); experiment: MTT cytotoxicity assay, CT-26; assay type: cell-based; conditions: Mus musculus, CT26, 24 h
Wistar rats [2] = experiment: Acute oral toxicity study; conditions: for change in body weight / food consumed by animals (weight) / change in organ weight, Kidney / change in organ weight, Liver / change in organ weight, Spleen: mean ± S.E.M, n = 5
Wistar rats [3] = experiment: Serum biochemistry after acute oral administration; conditions: n = 3; for Globulin: normal range 1.5–2.5, mean ± S.E.M; for A/G ratio: normal range 1.58–2.67, mean ± S.E.M; for Albumin: normal range 3.4–4.8, mean ± S.E.M; for Total protein: normal range 5.2–7.1, mean ± S.E.M; for SGPT (ALT): normal range 18–45, mean ± S.E.M; for ALP: normal range 62–230, mean ± S.E.M; for SGOT (AST): normal range 74–183, mean ± S.E.M
CT-26 cells [4] = experiment: DNA fragmentation, Hoechst staining, CT-26; assay type: cell-based, murine; conditions: CT-26, 50 µM, 24 h
Wistar rats [5] = experiment: Superoxide dismutase activity in organ homogenates; assay type: in vivo, rat
CT-26 cells [6] = experiment: Cell migration; assay type: cell-based, murine; conditions: 24 h, control = 100 %
Wistar rats [7] = experiment: Histopathological examination of liver, kidney and spleen; assay type: in vivo, rat; conditions: for Liver sections, histopathology / Spleen sections, histopathology: H&E
[8] = tested on: HCT-116 (human colorectal cancer cells); experiment: MTT cytotoxicity assay, HCT-116; assay type: cell-based
HCT-116 cells [9] = experiment: Cell migration; assay type: cell-based, human; conditions: 24 h, control = 100 %
Wistar rats [10] = experiment: Lipid peroxidation assay; assay type: in vivo, rat; conditions: 1000 mg/kg, compared to control
red blood cells (RBCs) = experiment: Hemolysis assay; assay type: cell-based; conditions: rat blood, 10 μM, 25 μM, 50 μM, and 100 μM, compared to positive control
HCT-116 cells [11] = experiment: DNA fragmentation, Hoechst staining, HCT-116; assay type: cell-based, human; conditions: HCT-116, 50 µM, 24 h

With `CC(C)(C)CC(C)(C)Nc1c(-c2ccc(-c3ccccc3)cc2)nc2cnccn12` [IG-01–008, 2-([1,1’-biphenyl]-4-yl)-N-(2,4,4-trimethylpentan-2-yl)imidazo[1,2-a]pyrazin-3-amine] the IC50 [1] was 48.1 ± 22.6 µM, the “change in body weight” value (Wistar rats [2]; 0 day, 300 mg/kg) was 242 ± 5.1478 gm and the “food consumed by animals (weight)” value (Wistar rats [2]; 0 day, 300 mg/kg) was 92.2 ± 0.374 gm. For the same compound, the “change in body weight” value (Wistar rats [2]; 0 day, 1000 mg/kg) was 249 ± 8.124 gm, the “food consumed by animals (weight)” value (Wistar rats [2]; 0 day, 1000 mg/kg) was 92.4 ± 1.166 gm and the “change in organ weight, Kidney” value (Wistar rats [2]; 300 mg/kg) was 2.058 ± 0.123 gm. The “change in organ weight, Liver” value (Wistar rats [2]; 300 mg/kg) was 6.21 ± 0.15 gm, the “change in organ weight, Spleen” value (Wistar rats [2]; 300 mg/kg) was 0.83 ± 0.0763 gm and the “change in organ weight, Kidney” value (Wistar rats [2]; 1000 mg/kg) was 1.954 ± 0.110 gm. The “change in organ weight, Liver” value (Wistar rats [2]; 1000 mg/kg) was 6.74 ± 0.332 gm, the “change in organ weight, Spleen” value (Wistar rats [2]; 1000 mg/kg) was 0.747 ± 0.1135 gm and the “body weight course” value (Wistar rats [2]; 7th and 14th day, 1000 mg/kg) was “gradual decrease in body weight”. The “food consumption” value (Wistar rats [2]; 7th day, 300 mg/kg and 1000 mg/kg, compared to control) was “significant decrease in food consumption”, the “change in body weight” value (Wistar rats [2]; 7th day, 300 mg/kg) was 254 ± 6.595 gm and the “food consumed by animals (weight)” value (Wistar rats [2]; 7th day, 300 mg/kg) was 86.2 ± 0.969 gm. The “change in body weight” value (Wistar rats [2]; 7th day, 1000 mg/kg) was 236 ± 8.124 gm, the “food consumed by animals (weight)” value (Wistar rats [2]; 7th day, 1000 mg/kg) was 83.2 ± 0.86 gm and the “food intake” value (Wistar rats [2]; 14th day, 300 mg/kg and 1000 mg/kg, compared to 1 % DMSO) was “significant reduction in food intake”. For the same compound, the “food intake” value (Wistar rats [2]; 14th day, 300 mg/kg, compared to control) was “significant decrease in food intake”, the “change in body weight” value (Wistar rats [2]; 14th day, 300 mg/kg) was 257 ± 6.04 gm and the “food consumed by animals (weight)” value (Wistar rats [2]; 14th day, 300 mg/kg) was 81.2 ± 0.916 gm. The “food intake” value (Wistar rats [2]; 14th day, 1000 mg/kg, compared to control) was “significant decrease in food intake”, the “change in body weight” value (Wistar rats [2]; 14th day, 1000 mg/kg) was 225 ± 8.366 gm and the “food consumed by animals (weight)” value (Wistar rats [2]; 14th day, 1000 mg/kg) was 76 ± 1.702 gm. The “body weight” value (Wistar rats [2]; day 14th, 1000 mg/kg, compared to control) was “significantly lowered”, the toxicity signs (Wistar rats [2]; oral, 1000 mg/kg) was “toxicity signs were seen” and the “tremors, change in eye and skin color” value (Wistar rats [2]; oral, 1000 mg/kg) was “tremors, change in eye and skin color was observed”. The Mortality (Wistar rats [2]; oral, 2000 mg/kg) was “Mortality was observed”, the Globulin (Wistar rats [3]; 300 mg/kg) was 4.30 ± 0.529 g/dL and the A/G ratio (Wistar rats [3]; 300 mg/kg) was 0.736 ± 0.0523. For the same compound, the Albumin (Wistar rats [3]; 300 mg/kg) was 3.166 ± 0.2905 g/dL, the Total protein (Wistar rats [3]; 300 mg/kg) was 7.266 ± 0.523 g/dL and the “SGPT (ALT)” value (Wistar rats [3]; 300 mg/kg) was 60.33 ± 3.756 U/L. The ALP (Wistar rats [3]; 300 mg/kg) was 391.33 ± 9.261 U/L, the “SGOT (AST)” value (Wistar rats [3]; 300 mg/kg) was 255 ± 5.291 U/L and the Globulin (Wistar rats [3]; 1000 mg/kg) was 4.35 ± 0.144 g/dL. For the same compound, the A/G ratio (Wistar rats [3]; 1000 mg/kg) was 0.923 ± 0.0648, the Albumin (Wistar rats [3]; 1000 mg/kg) was 3.67 ± 0.2055 g/dL and the Total protein (Wistar rats [3]; 1000 mg/kg) was 7.60 ± 0.3183 g/dL. For the same compound, the “SGPT (ALT)” value (Wistar rats [3]; 1000 mg/kg) was 79.0 ± 1.732 U/L, the Triglycerides (Wistar rats [3]; 1000 mg/kg, normal range 20–114, mean ± S.E.M) was 115.33 ± 5.487 mg% and the ALP (Wistar rats [3]; 1000 mg/kg) was 501.66 ± 13.64 U/L. The “SGOT (AST)” value (Wistar rats [3]; 1000 mg/kg) was 302.33 ± 4.096 U/L, the DNA fragmentation (CT-26 cells [4]) was “DNA fragmentation” and the “SOD level, spleen” value (Wistar rats [5]; 300 mg/kg, compared with control and 1 % DMSO) was “significant decrease seen in SOD level”. For the same compound, the “SOD level, spleen” value (Wistar rats [5]; 1000 mg/kg, compared with IG-01–007 and IG-01–008 at 300 mg/kg) was “significant reduction of SOD level”, the “SOD levels, kidney” value (Wistar rats [5]; 1000 mg/kg, compared with IG-01–007 at 300 mg/kg) was “SOD levels were significantly decreased” and the “SOD level, spleen” value (Wistar rats [5]; 1000 mg/kg, compared with control and 1 % DMSO) was “significant decrease seen in SOD level”. The “SOD levels, kidney” value (Wistar rats [5]; 1000 mg/kg, in comparison with 1 % DMSO) was “SOD levels significantly decreased”, the migration percentages (CT-26 cells [6]; CT-26, 25 μM) was 35.65% and the migration percentages (CT-26 cells [6]; CT-26, 50 μM) was 39.17%. For the same compound, the “Liver sections, histopathology” value (Wistar rats [7]; 300 mg/kg) was “mild steatosis and presence of micro and macro vesicles”, the “Spleen sections, histopathology” value (Wistar rats [7]; 300 mg/kg) was “ill-defined spleen section” and the “Liver sections, histopathology” value (Wistar rats [7]; 1000 mg/kg) was “moderate to severe fatty liver change with presence of sinusoidal spaces indicated by arrow and multi necrotic foci filled with mild hemorrhage”. The “Spleen sections, histopathology” value (Wistar rats [7]; 1000 mg/kg) was “disrupt white pulp”, the “toxicity in liver tissues (abstract)” value (Wistar rats [7]; doses of ≥ 1000 mg/kg) was “hepatic damage and cholestasis” and the cell viability ([8]; HCT-116, 10 μM and 25 μM) was “no significant reduction in cell viability”. For the same compound, the cytotoxicity ([8]; HCT-116, 50 μM and 100 μM) was “higher cytotoxicity compared to IG-01–007”, the IC50 ([8]; Homo sapiens, HCT-116, 24 h) was 30.9 ± 10.6 µM and the “% migration of cell” value (HCT-116 cells [9]; HCT-116, 25 μM) was 36.33%. The “% migration of cell” value (HCT-116 cells [9]; HCT-116, 50 μM) was 20.76%, the “MDA levels, liver” value (Wistar rats [10]) was “significantly higher” and the hemolytic activity (red blood cells (RBCs)) was “did not show any hemolytic activity”. The DNA fragmentation (HCT-116 cells [11]) was “DNA fragmentation”.
